Results published in patent US20130053337A1, “GUANIDINYLATED AMINOGLYCOSIDE-LIPID CONJUGATES” (UNIVERSITY OF MANITOBA, priority 2010, published 2013).

Legend:
S. pneumoniae ATCC 49619 = assay: MIC, broth macrodilution (CLSI), broth with 5% laked horse blood; format: cell-based, Streptococcus pneumoniae; details: S. pneumoniae ATCC49619
Protocol: (§1) All experiments were performed in duplicate.
(§2) Bacterial isolates studied included both reference strains obtained from the American Type Culture Collection (ATCC) as well as clinical strains obtained from the CAN-ICU study which was a national surveillance study assessing the prevalence of antimicrobial resistant pathogens in Canadian intensive care units (Zhanel et al., 2008). Isolates were kept frozen in skim milk at −80° C. until minimum inhibitory concentration (MIC) testing was carried out. Following two subcultures from frozen stock, the in vitro activities of peptides were determined by macrobroth dilution in accordance with the Clinical and Laboratory Standards Institute (CLSI) 2006 guidelines (Zhanel et al., 2008). Stock solutions of peptides were prepared and dilutions made as described by CLSI. Test tubes contained doubling antimicrobial dilutions of cation adjusted Mueller-Hinton broth and inoculated to achieve a final concentration of approximately 5×10^5 cfu/ml then incubated in ambient air for 24 hours prior to reading. Colony counts were performed periodically to confirm inocula. Quality control was regularly performed using ATCC QC organisms.

S. aureus ATCC 29213 = assay: MIC, broth macrodilution (CLSI); format: cell-based, Staphylococcus aureus; details: S. aureus ATCC29213
Protocol: as §1, §2

MRSE CAN-ICU 61589 [1] = assay: MIC, broth macrodilution (CLSI); format: cell-based, methicillin-resistant Staphylococcus epidermidis
Protocol: as §1, §2

MRSA ATCC 33592 = assay: MIC, broth macrodilution (CLSI); format: cell-based, methicillin-resistant Staphylococcus aureus; details: for MIC: MRSA ATCC33592; for fold lower MIC (MRSA) compared to analogs 6 and 7: guanidinylated vs polyamine analog
Protocol: as §1, §2

[2] = test system: S. epidermidis ATCC 14990; assay: MIC, broth macrodilution (CLSI); format: cell-based, Staphylococcus epidermidis; details: S. epidermidis ATCC14990
Protocol: as §1, §2

[3] = test system: P. aeruginosa (gentamicin-resistant) CAN-ICU 62308; assay: MIC, broth macrodilution (CLSI); format: cell-based
Protocol: as §1, §2

[4] = test system: E. coli (amikacin MIC 32 mg/L) CAN-ICU 63074; assay: MIC, broth macrodilution (CLSI); format: cell-based; details: E. coli CAN-ICU 63074
Protocol: as §1, §2

E. coli ATCC 25922 = assay: MIC, broth macrodilution (CLSI); format: cell-based; details: E. coli ATCC25922
Protocol: as §1, §2

[5] = test system: E. coli (gentamicin-resistant) CAN-ICU 61714; assay: MIC, broth macrodilution (CLSI); format: cell-based; details: E. coli CAN-ICU 61714
Protocol: as §1, §2

P. aeruginosa ATCC 27853 = assay: MIC, broth macrodilution (CLSI); format: cell-based; details: P. aeruginosa ATCC27853
Protocol: as §1, §2

E. faecalis ATCC 29212 = assay: MIC, broth macrodilution (CLSI); format: cell-based, Enterococcus faecalis; details: E. faecalis ATCC29212
Protocol: as §1, §2

E. faecium ATCC 27270 = assay: MIC, broth macrodilution (CLSI); format: cell-based, Enterococcus faecium; details: E. facium ATCC27270
Protocol: as §1, §2

[6] = test system: sheep red blood cell (erythrocytes); assay: Hemolytic assay (in vitro toxicity); details: for hemolytic activity at 100 mg/L: sheep erythrocytes, percent hemolysis
Protocol: Antibacterial activity against Gram-positive and Gram-negative microorganisms was tested via broth macrodilution tests using CLSI methodology (Zhanel et al., 2008). Stock solutions of cationic lipids in water were brought to a concentration of 512 mg/L. Organisms were subcultured and isolated on blood agar, suspended in 3 mL of Mueller-Hinton broth at the turbidity of a […], and diluted to approximately 10^5 cfu/mL before introduction into tubes containing serially diluted lipopeptide antibiotic in Mueller-Hinton broth. Activity testing against S. pneumoniae used broth supplemented with laked horse blood to give 5% horse blood in experimental tubes. Turbidity of lipopeptide solution in broth required creation of control tubes lacking organisms serving as turbidity controls. All tubes were incubated overnight for 16-20 h at 37° C. […] All experiments were performed in duplicate. In-vitro toxicity was determined using a sheep red blood cell hemolytic assay as previously described (Dathe et al., 1996).
In vitro toxicity was determined using a sheep red blood cell (erythrocytes) hemolytic assay (Dathe et al., 1996). […] Erythrocytes were washed and resuspended in Tris buffered saline. The cell suspension was combined with varying concentrations (low to very high) of test and control antimicrobials (e.g., aminoglycosides and APTCs). The samples were centrifuged and the absorbance of the supernatants measured at 540 nm. Tris buffered saline and Triton X were used as negative and positive controls, respectively. The toxicity was assessed by percent hemolysis.

MRSE CAN-ICU 61589 [7] = details: Zhanel et al., 2008; cited from earlier work
[8] = gentamicin-resistant (as well as neomycin B and kanamycin A-resistant) P. aeruginosa strain

Row | Structure (SMILES) | MIC (S. pneumoniae ATCC 49619) | MIC (S. aureus ATCC 29213) | MIC (MRSE CAN-ICU 61589 [1]) | MIC (MRSA ATCC 33592) | MIC [2] | MIC ([3]; P. aeruginosa CAN-ICU 62308) | MIC [4] | MIC (E. coli ATCC 25922) | MIC [5] | MIC (P. aeruginosa ATCC 27853) | MIC (E. faecalis ATCC 29212) | MIC (E. faecium ATCC 27270) | hemolytic activity at 100 mg/L [6] | MIC [3, 8] | hemolytic activity compared to polyamine analogs 3 and 15 ([6]; in words) | MIC (strain description) (MRSE CAN-ICU 61589 [7]) | fold lower MIC (MRSA) compared to analogs 6 and 7 (MRSA ATCC 33592)
1 | CCCCCCCCCCCCCCCC(=O)NCC1OC(OC2C(NC(=N)N)CC(NC(=N)N)C(OC3OC(CNC(=N)N)C(O)C(O)C3O)C2O)C(O)C(NC(=N)N)C1O.O=C(O)C(F)(F)F.O=C(O)C(F)(F)F.O=C(O)C(F)(F)F.O=C(O)C(F)(F)F (stereo not shown) [Compound 16, 1,3,6′,3″-Tetraammonium-guanidinyl-6″-deoxy-6″-N-(hexadecanoyl)-kanamycin-tetrakis-(trifluoroacetate)] | 128 µg/mL | 16 µg/mL | 8 µg/mL | 8 µg/mL | 8 µg/mL | 64 µg/mL | 64 µg/mL | 64 µg/mL | 128 µg/mL | 256 µg/mL | 16 µg/mL | 16 µg/mL | 6.7% |  |  |  | 
2 | CCCCCCCCCCCC(=O)NCC1OC(OC2C(O)C(NC(=N)N)CC(NC(=N)N)C2OC2OC(CNC(=N)N)C(O)C(O)C2NC(=N)N)C(O)C1OC1OC(CNC(=N)N)C(O)C(O)C1NC(=N)N.O=C(O)C(F)(F)F.O=C(O)C(F)(F)F.O=C(O)C(F)(F)F.O=C(O)C(F)(F)F.O=C(O)C(F)(F)F.O=C(O)C(F)(F)F (stereo not shown) [Compound 9, 1,3,2′,6′,2′″,6′″-Hexaammonium-guanidinyl-5″-deoxy-5″-N-(dodecanoyl)-neomycin hexakis(trifluoroacetate)] | 64 µg/mL | 4 µg/mL | 2 µg/mL | 8 µg/mL | 2 µg/mL | 32 µg/mL | 16 µg/mL | 16 µg/mL | 32 µg/mL | 32 µg/mL | 32 µg/mL | 16 µg/mL | 2% |  |  |  | 
3 | CCCCCCCCCCCCCCCC(=O)NCC1OC(OC2C(O)C(NC(=N)N)CC(NC(=N)N)C2OC2OC(CNC(=N)N)C(O)C(O)C2NC(=N)N)C(O)C1OC1OC(CNC(=N)N)C(O)C(O)C1NC(=N)N.O=C(O)C(F)(F)F.O=C(O)C(F)(F)F.O=C(O)C(F)(F)F.O=C(O)C(F)(F)F.O=C(O)C(F)(F)F.O=C(O)C(F)(F)F (stereo not shown) [Compound 10, 1,3,2′,6′,2′″,6′″-Hexaammonium-guanidinyl-5″-deoxy-5″-N-(hexadecanoyl)-neomycin hexakis(trifluoroacetate)] | 32 µg/mL | 4 µg/mL | 4 µg/mL | 4 µg/mL | 1 µg/mL | 8 µg/mL | 32 µg/mL | 32 µg/mL | 64 µg/mL | 32 µg/mL | 4 µg/mL | 0.5 µg/mL | 13% | 8 µg/mL | reduced hemolytic activity |  | 
4 | Cc1nnc(SCC2=C(C(=O)O)N3C(=O)[C@@H](NC(=O)Cn4cnnn4)[C@H]3SC2)s1 [cefazolin] |  |  |  |  |  |  |  |  |  |  |  |  |  |  |  | > 32 µg/mL | 
5 | N=C(N)NCC1OC(OC2C(CNC(=O)CCCc3ccc4ccc5cccc6ccc3c4c56)OC(OC3C(O)C(NC(=N)N)CC(NC(=N)N)C3OC3OC(CNC(=N)N)C(O)C(O)C3NC(=N)N)C2O)C(NC(=N)N)C(O)C1O.O=C(O)C(F)(F)F.O=C(O)C(F)(F)F.O=C(O)C(F)(F)F.O=C(O)C(F)(F)F.O=C(O)C(F)(F)F.O=C(O)C(F)(F)F (stereo not shown) [Compound 13, 1,3,2′,6′,2′″,6′″-Hexaammonium-guanidinyl-5″-deoxy-5″-N-((4-pyrenyl)-butanoyl)-neomycin hexakis(trifluoroacetate)] | 64 µg/mL | 8 µg/mL | 8 µg/mL | 8 µg/mL | 8 µg/mL | 16 µg/mL | 32 µg/mL | 32 µg/mL | 32 µg/mL | 32 µg/mL | 32 µg/mL | 16 µg/mL | 3% | 16 µg/mL |  |  | 32 fold
6 | CC(CCC(=O)NCC1OC(OC2C(O)C(NC(=N)N)CC(NC(=N)N)C2OC2OC(CNC(=N)N)C(O)C(O)C2NC(=N)N)C(O)C1OC1OC(CNC(=N)N)C(O)C(O)C1NC(=N)N)C1CCC2C3C(O)CC4CC(O)CCC4(C)C3CC(O)C12C.O=C(O)C(F)(F)F.O=C(O)C(F)(F)F.O=C(O)C(F)(F)F.O=C(O)C(F)(F)F.O=C(O)C(F)(F)F.O=C(O)C(F)(F)F (stereo not shown) [Compound 14, 1,3,2′,6′,2′″,6′″-Hexaammonium-guanidinyl-5″-deoxy-5″-N-(cholanoyl)-neomycin hexakis(trifluoroacetate)] | 64 µg/mL | 16 µg/mL | 8 µg/mL | 16 µg/mL | 4 µg/mL | 32 µg/mL | 32 µg/mL | 64 µg/mL | 64 µg/mL | 128 µg/mL | 32 µg/mL | 16 µg/mL | 2% |  |  |  | 8 fold
7 | CCCCC/C=C\C/C=C\CCCCCCCC(=O)NCC1OC(OC2C(O)C(NC(=N)N)CC(NC(=N)N)C2OC2OC(CNC(=N)N)C(O)C(O)C2NC(=N)N)C(O)C1OC1OC(CNC(=N)N)C(O)C(O)C1NC(=N)N.O=C(O)C(F)(F)F.O=C(O)C(F)(F)F.O=C(O)C(F)(F)F.O=C(O)C(F)(F)F.O=C(O)C(F)(F)F.O=C(O)C(F)(F)F (stereo not shown) [Compound 12, 1,3,2′,6′,2′″,6′″-Hexaammonium-guanidinyl-5″-deoxy-5″-N-(9Z,12Z,octadeca-di-ene-oyl)-neomycin hexakis(trifluoroacetate)] | 128 µg/mL | 8 µg/mL | 8 µg/mL | 16 µg/mL | 4 µg/mL | 64 µg/mL | 64 µg/mL | 64 µg/mL | 128 µg/mL | 128 µg/mL | 64 µg/mL | 64 µg/mL | 1% |  |  |  | 
8 | CCCCCCCCCCCCCCCC(=O)NCC1OC(OC2C(N)CC(N)C(OC3OC(CN)C(O)C(O)C3O)C2O)C(O)C(N)C1O.O=C(O)C(F)(F)F.O=C(O)C(F)(F)F.O=C(O)C(F)(F)F.O=C(O)C(F)(F)F (stereo not shown) [Compound 15, 1,3,6′,3″-Tetraammonium-6″-deoxy-6″-N-(hexadecanoyl)-kanamycin-tetrakis-(trifluoroacetate)] | 64 µg/mL | 8 µg/mL | 2 µg/mL | 16 µg/mL | 2 µg/mL | 64 µg/mL | 32 µg/mL | 32 µg/mL | 32 µg/mL | 64 µg/mL | 8 µg/mL | 8 µg/mL | 20% |  |  |  | 
